Emax and EC50 data for four compounds are collected here from patent US20230265151A1, “GIP/GLP1 CO-AGONIST COMPOUNDS” (priority 2020, published 2023).

What all share (type): cell-based
For one test, the target named is T1, hGIPR (Homo sapiens, UniProt P48546).
T1 construct: expressed in transfected cells
T1 sequence (P48546 22-466): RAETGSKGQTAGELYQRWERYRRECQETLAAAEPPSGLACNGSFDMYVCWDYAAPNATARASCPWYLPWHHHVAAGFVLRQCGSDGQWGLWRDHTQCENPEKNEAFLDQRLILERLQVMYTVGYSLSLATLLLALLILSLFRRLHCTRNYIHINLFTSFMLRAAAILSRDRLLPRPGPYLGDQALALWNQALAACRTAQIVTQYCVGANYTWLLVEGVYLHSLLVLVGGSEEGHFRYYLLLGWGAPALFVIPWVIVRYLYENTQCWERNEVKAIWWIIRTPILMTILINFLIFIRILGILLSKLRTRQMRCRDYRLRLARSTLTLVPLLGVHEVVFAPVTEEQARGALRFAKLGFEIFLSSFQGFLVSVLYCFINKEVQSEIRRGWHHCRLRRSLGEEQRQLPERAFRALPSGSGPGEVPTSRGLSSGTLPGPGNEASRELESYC
Briefly: Functional cAMP formation (HTRF) in HEK-293 clonal cells expressing hGIPR, 0.1% bovine casein, without or with 1.0% human serum albumin. The following applies: for EC50: geometric mean. The gist of the method: (§1)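 Cells were stimulated with peptide for 30 min at 37° C, then lysed in buffer carrying cAMP-d2 and anti-cAMP Eu3+-cryptate for a competitive HTRF read after at least 60 min at room temperature. The 665/620 nm ratio was converted to nM cAMP against a standard curve.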
A general note: Cyclic AMP is a second messenger, typically raised through Gs and lowered through Gi signalling.

For a further test, the target named is T2, hGCGR (Homo sapiens, UniProt P47871).
T2 construct: expressed in transfected cells
T2 sequence (P47871 26-477): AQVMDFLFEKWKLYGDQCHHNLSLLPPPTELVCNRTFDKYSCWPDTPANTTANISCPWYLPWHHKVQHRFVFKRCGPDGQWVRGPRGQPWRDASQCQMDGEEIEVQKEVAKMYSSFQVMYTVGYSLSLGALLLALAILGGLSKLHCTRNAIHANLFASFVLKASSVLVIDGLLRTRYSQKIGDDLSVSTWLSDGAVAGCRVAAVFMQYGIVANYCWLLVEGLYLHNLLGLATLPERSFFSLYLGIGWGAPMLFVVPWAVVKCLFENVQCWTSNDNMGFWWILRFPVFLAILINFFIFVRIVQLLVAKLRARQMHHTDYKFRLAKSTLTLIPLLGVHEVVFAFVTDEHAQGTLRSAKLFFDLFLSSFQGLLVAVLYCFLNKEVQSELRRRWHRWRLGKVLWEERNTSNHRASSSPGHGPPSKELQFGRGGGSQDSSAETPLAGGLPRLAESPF
Description: Functional cAMP formation (HTRF) in HEK-293 clonal cells expressing hGCGR, 0.1% bovine casein, without or with 1.0% human serum albumin. A digest of the protocol:
as §1

The next test concerns the target hGLP-1R (Homo sapiens, UniProt P43220). Briefly: Functional cAMP formation (HTRF) in HEK-293 clonal cells expressing hGLP-1R, 0.1% bovine casein, without or with 1.0% human serum albumin. Details: expressed in transfected cells. A digest of the protocol: as §1
The mark [1] stands for this setting: cAMP, incubated at 37° C., 0.1% bovine casein (no human serum albumin), read-out: hGIPR EC50, nM (SEM, n).
Where [2] appears, read: cAMP, incubated at 37° C., 0.1% bovine casein (no human serum albumin), geometric mean, read-out: hGCGR EC50, nM (SEM, n).

Like-named read-outs stand apart in the source and are kept apart here.

Chain of hGLP-1R (P43220 24-463): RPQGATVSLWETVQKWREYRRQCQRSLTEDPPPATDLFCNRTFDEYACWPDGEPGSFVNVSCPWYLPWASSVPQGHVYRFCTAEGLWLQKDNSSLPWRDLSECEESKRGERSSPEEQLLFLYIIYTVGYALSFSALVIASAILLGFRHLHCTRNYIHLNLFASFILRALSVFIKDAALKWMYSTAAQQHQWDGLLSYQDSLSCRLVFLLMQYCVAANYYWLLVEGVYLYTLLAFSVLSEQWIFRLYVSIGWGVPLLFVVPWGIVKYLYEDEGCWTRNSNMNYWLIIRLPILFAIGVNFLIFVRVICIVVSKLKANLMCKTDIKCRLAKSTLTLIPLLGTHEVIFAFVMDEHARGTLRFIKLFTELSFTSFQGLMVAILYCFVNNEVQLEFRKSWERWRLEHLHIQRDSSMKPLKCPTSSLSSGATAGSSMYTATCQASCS

Take `CC[C@H](C)[C@H](NC(=O)[C@H](CCCN)NC(=O)[C@H](CC(=O)O)NC(=O)[C@H](CC(C)C)NC(=O)[C@](C)(CC(C)C)NC(=O)[C@@H](NC(=O)[C@](C)(CO)NC(=O)[C@H](Cc1ccc(O)cc1)NC(=O)[C@H](CC(=O)O)NC(=O)[C@H](CO)NC(=O)[C@@H](NC(=O)[C@](C)(Cc1ccccc1F)NC(=O)[C@@H](NC(=O)CNC(=O)[C@H](CCC(=O)O)NC(=O)C(C)(C)NC(=O)[C@@H](N)Cc1ccc(O)cc1)[C@@H](C)O)[C@@H](C)O)[C@@H](C)CC)C(=O)N[C@@H](C)C(=O)N[C@@H](CCC(N)=O)C(=O)NC(C)(C)C(=O)N[C@@H](CCC(=O)O)C(=O)N[C@@H](Cc1ccccc1)C(=O)N[C@H](C(=O)N[C@@H](CCCCNC(=O)COCCOCCNC(=O)COCCOCCNC(=O)CC[C@H](NC(=O)CCCCCCCCCOc1ccc(C(=O)O)cc1)C(=O)O)C(=O)N[C@@](C)(Cc1ccc(O)cc1)C(=O)N[C@@H](CC(C)C)C(=O)N[C@H](C(=O)N[C@@H](CCCCNC(=O)COCCOCCNC(=O)COCCOCCNC(=O)CC[C@H](NC(=O)CCCCCCCCCOc1ccc(C(=O)O)cc1)C(=O)O)C(=O)NCC(=O)NCC(=O)N1CCC[C@H]1C(=O)N[C@@H](CO)C(=O)N[C@@H](CO)C(=O)NCC(=O)N[C@@H](C)C(=O)N1CCC[C@H]1C(=O)N1CCC[C@H]1C(=O)N1CCC[C@H]1C(=O)N[C@@H](CO)C(N)=O)[C@@H](C)CC)[C@@H](C)CC` [Example 307]: the maximal response (Emax) was determined as 81.8% on hGIPR (HEK293, read-out: hGIPR Emax, % ± SEM, 0.1% bovine casein and 1.0% human serum albumin, 37° C., percent of maximal response to GIP(1-42)NH2); 105% on hGIPR (HEK293, read-out: hGIPR Emax, % ± SEM, cAMP, 37° C., 0.1% bovine casein, percent of maximal response to GIP(1-42)NH2, arithmetic mean); 109% at hGLP-1R (HEK293, read-out: hGLP-1R Emax, % ± SEM, 0.1% bovine casein and 1.0% human serum albumin, 37° C., percent of maximal response to GLP-1(7-36)NH2). Besides, the concentration giving a half-maximal response (EC50) is 1.66 nM on hGIPR (hGIPR EC50, nM (SEM, n), 0.1% bovine casein and 1.0% human serum albumin, 37° C.); 0.0292 nM on hGIPR (hGIPR EC50, nM (SEM, n), cAMP, 37° C., 0.1% bovine casein (no human serum albumin)); > 9950 nM on hGCGR (hGCGR EC50, nM (SEM, n), 0.1% bovine casein and 1.0% human serum albumin, 37° C., geometric mean); > 9950 nM on hGCGR (hGCGR EC50, nM (SEM, n), cAMP, 37° C., 0.1% bovine casein (no human serum albumin), geometric mean); 0.376 nM on hGLP-1R (hGLP-1R EC50, nM (SEM, n), cAMP, 37° C., 0.1% bovine casein (no human serum albumin), geometric mean).

With `CC[C@H](C)[C@H](NC(=O)[C@H](CC(C)C)NC(=O)[C@](C)(Cc1ccc(O)cc1)NC(=O)[C@@H](CCC(=O)O)NC(=O)[C@@H](NC(=O)[C@H](CC1CCCCC1)NC(=O)[C@H](CCC(=O)O)NC(=O)C(C)(C)NC(=O)[C@H](CCC(N)=O)NC(=O)[C@H](C)NC(=O)[C@H](CCCCNC(=O)COCCOCCNC(=O)COCCOCCNC(=O)CC[C@H](NC(=O)CCCCCCCCCCCCC(=O)O)C(=O)O)NC(=O)[C@H](CCCN)NC(=O)[C@H](CC(=O)O)NC(=O)[C@H](CC(C)C)NC(=O)[C@](C)(CC(C)C)NC(=O)[C@@H](NC(=O)[C@H](CO)NC(=O)[C@H](Cc1ccncc1)NC(=O)[C@H](CC(=O)O)NC(=O)[C@H](CO)NC(=O)[C@@H](NC(=O)[C@](C)(Cc1ccccc1F)NC(=O)[C@@H](NC(=O)CNC(=O)[C@H](CCC(=O)O)NC(=O)C(C)(C)NC(=O)[C@@H](N)Cc1ccc(O)cc1)[C@@H](C)O)[C@@H](C)O)[C@@H](C)CC)[C@@H](C)CC)C(=O)N[C@@H](CCC(=O)O)C(=O)NCC(=O)NCC(=O)N[C@@H](CCCCNC(=O)COCCOCCNC(=O)COCCOCCNC(=O)CC[C@H](NC(=O)CCCCCCCCCCCCC(=O)O)C(=O)O)C(=O)N[C@@H](CO)C(=O)N[C@@H](CO)C(=O)NCC(=O)N[C@@H](C)C(=O)N1CCC[C@H]1C(=O)N1CCC[C@H]1C(=O)N1CCC[C@H]1C(=O)N[C@@H](CO)C(N)=O` [Example 148], the concentration giving a half-maximal response (EC50) on hGIPR (setting [1]) is 0.0209 nM; at hGCGR (setting [2]) it was > 9950 nM. For the same compound, the Emax on hGLP-1R (HEK293, percent of maximal response to GLP-1(7-36)NH2, 37° C., 0.1% bovine casein, arithmetic mean, read-out: hGLP-1R Emax, % ± SEM) turned out to be 94.5%.

Turning to `CCCCCCCCCCCC(=O)N[C@@H](CCC(=O)NCCOCCOCC(=O)NCCCC[C@H](NC(=O)[C@H](CCCN)NC(=O)[C@H](CC(=O)O)NC(=O)[C@H](CC(C)C)NC(=O)[C@](C)(CC(C)C)NC(=O)[C@@H](NC(=O)C(C)(C)NC(=O)[C@H](Cc1ccncc1)NC(=O)[C@H](CC(=O)O)NC(=O)[C@H](CO)NC(=O)[C@@H](NC(=O)[C@](C)(Cc1ccccc1F)NC(=O)[C@@H](NC(=O)CNC(=O)[C@H](CCC(=O)O)NC(=O)C(C)(C)NC(=O)[C@@H](N)Cc1ccc(O)cc1)[C@@H](C)O)[C@@H](C)O)[C@@H](C)CC)C(=O)N[C@@H](C)C(=O)N[C@@H](CCC(N)=O)C(=O)NC(C)(C)C(=O)N[C@@H](CCCCNC(=O)COCCOCCNC(=O)CC[C@H](NC(=O)CCCCCCCCCCC)C(=O)O)C(=O)N[C@@H](Cc1ccccc1)C(=O)N[C@H](C(=O)N[C@H](CCC(=O)O)C(=O)N[C@@](C)(Cc1ccc(O)cc1)C(=O)N[C@@H](CC(C)C)C(=O)N[C@H](C(=O)N[C@@H](CCC(=O)O)C(=O)NCC(=O)NCC(=O)N1CCC[C@H]1C(=O)N[C@@H](CO)C(=O)N[C@@H](CO)C(=O)NCC(=O)N[C@@H](C)C(=O)N1CCC[C@H]1C(=O)N1CCC[C@H]1C(=O)N1CCC[C@H]1C(=O)N[C@@H](CO)C(N)=O)[C@@H](C)CC)[C@@H](C)CC)C(=O)O` [Example 426], the Emax was 91.2% on hGIPR (HEK293, cAMP, 37° C., 0.1% bovine casein and 1.0% human serum albumin, percent of maximal response to GIP(1-42)NH2, read-out: hGIPR Emax, % ± SEM); 93.3% at hGIPR (HEK293, cAMP, 37° C., 0.1% bovine casein, percent of maximal response to GIP(1-42)NH2, arithmetic mean, read-out: hGIPR Emax, % ± SEM); 97.2% on hGLP-1R (HEK293, cAMP, 37° C., 0.1% bovine casein, percent of maximal response to GLP-1(7-36)NH2, arithmetic mean, read-out: hGLP-1R Emax, % ± SEM). For the same compound, the EC50 is 0.0191 nM at hGIPR (cAMP, 37° C., 0.1% bovine casein (no human serum albumin), read-out: hGIPR EC50, nM (SEM, n)); > 9950 nM on hGCGR (cAMP, 37° C., 0.1% bovine casein (no human serum albumin), geometric mean, read-out: hGCGR EC50, nM (SEM, n)); > 9950 nM at hGCGR (cAMP, 37° C., 0.1% bovine casein and 1.0% human serum albumin, geometric mean (SEM, n), read-out: hGCGR EC50, nM (SEM, n)); 0.206 nM on hGLP-1R (cAMP, 37° C., 0.1% bovine casein (no human serum albumin), geometric mean, read-out: hGLP-1R EC50, nM (SEM, n)); 29.7 nM on hGLP-1R (cAMP, 37° C., 0.1% bovine casein and 1.0% human serum albumin, geometric mean (SEM, n), read-out: hGLP-1R EC50, nM (SEM, n)).

Turning to `CC[C@H](C)[C@H](NC(=O)[C@H](CC(C)C)NC(=O)[C@](C)(Cc1ccc(O)cc1)NC(=O)[C@@H](CCC(=O)O)NC(=O)[C@@H](NC(=O)[C@H](Cc1ccccc1)NC(=O)[C@H](CCC(=O)O)NC(=O)C(C)(C)NC(=O)[C@H](CCC(N)=O)NC(=O)[C@H](C)NC(=O)[C@H](CCCCNC(=O)COCCOCCNC(=O)[C@@H](N)CCCCNC(=O)CC[C@H](NC(=O)CCCCCCCCCCCCC(=O)O)C(=O)O)NC(=O)[C@H](CCCN)NC(=O)[C@H](CC(=O)O)NC(=O)[C@H](CC(C)C)NC(=O)[C@](C)(CC(C)C)NC(=O)[C@@H](NC(=O)[C@H](CO)NC(=O)[C@H](Cc1ccncc1)NC(=O)[C@H](CC(=O)O)NC(=O)[C@H](CO)NC(=O)[C@@H](NC(=O)[C@](C)(Cc1ccccc1F)NC(=O)[C@@H](NC(=O)CNC(=O)[C@H](CCC(=O)O)NC(=O)C(C)(C)NC(=O)[C@@H](N)Cc1ccc(O)cc1)[C@@H](C)O)[C@@H](C)O)[C@@H](C)CC)[C@@H](C)CC)C(=O)N[C@@H](CCC(=O)O)C(=O)NCC(=O)NCC(=O)N[C@@H](CCCCNC(=O)COCCOCCNC(=O)[C@@H](N)CCCCNC(=O)CC[C@H](NC(=O)CCCCCCCCCCCCC(=O)O)C(=O)O)C(=O)N[C@@H](CO)C(=O)N[C@@H](CO)C(=O)NCC(=O)N[C@@H](C)C(=O)N1CCC[C@H]1C(=O)N1CCC[C@H]1C(=O)N1CCC[C@H]1C(=O)N[C@@H](CO)C(N)=O` [Example 35], the half-maximal effective concentration (EC50) is 0.35 nM on hGIPR (0.1% bovine casein and 1.0% human serum albumin, 37° C., read-out: hGIPR EC50, nM (SEM, n)); 0.0162 nM at hGIPR (setting [1]); > 9950 nM on hGCGR (0.1% bovine casein and 1.0% human serum albumin, 37° C., geometric mean, read-out: hGCGR EC50, nM (SEM, n)); > 9950 nM at hGCGR (setting [2]); 16.4 nM on hGLP-1R (0.1% bovine casein and 1.0% human serum albumin, 37° C., geometric mean, read-out: hGLP-1R EC50, nM (SEM, n)). The maximal response (Emax) at hGIPR (HEK293, 0.1% bovine casein and 1.0% human serum albumin, 37° C., percent of maximal response to GIP(1-42)NH2, read-out: hGIPR Emax, % ± SEM) was 91.7 ± 1.28%; on hGIPR (HEK293, percent of maximal response to GIP(1-42)NH2, 37° C., 0.1% bovine casein, arithmetic mean, read-out: hGIPR Emax, % ± SEM), 97 ± 2.32%.

As usually defined, the Emax is the maximal effect, on the per cent scale that the assay sets. In general, EC50 refers to the midpoint of the concentration-response curve.
